Results taken from PMC8179358, “An explicitly designed paratope of amyloid-β prevents neuronal apoptosis in vitro and hippocampal damage in rat brain” (Chemical Science, 2020).

Columns and labels:
Type in all cases: biochemical
Aβ42 [1] = assay: DLS of Aβ42 aggregates; conditions: untreated Aβ42 50 μM
Experimental: Dynamic light scattering (DLS) measurements
DLS1,2 measurements were performed with the different Aβ42peptide samples (oligomers and mature fibrils) on a Malvern nano zetasizer (Malvern, UK) using a laser source with λ=633 nm and a detector at a scattering angle of θ = 173 degrees.
for the ThT assay, in the absence of ThT dye, for 1h, 5h, 10h and 20h min to generate oligomers and mature fibrils, respectively and the hydrodynamic diameter of them was immediately examined by DLS.
Prior to the analysis, samples were filtered through 0.45 µm PVDF membrane. The samples were placed in a disposable cuvette and held at the corresponding temperature during the analysis. For each sample, the analyses were recorded three times with 11 sub-runs using the multimodal mode. The Z-average diameter was calculated from the correlation function using Malvern technology software. g.

Aβ42 [2] = assay: TEM of early events of Aβ42 aggregation; conditions: absence of SP1; 1, 5, 10, 20 h
Experimental: Transmission Electron Microscopy (TEM)
10μL aliquot from the stock peptide solution after incubation of 10 days (7 days for inhibition study) was added over the carbon-coated copper grid. Then 2% uranyl acetate solution (10μL) was added onto it and allowed to float for 1 min. The excess solution was removed using a blotting paper. The sample was dried at room temperature and kept in desiccators before taking TEM analysis on JEOL (Model: JEM 2100)

[3] = Carboxyfluorescein dye leakage from LUVs, Aβ42; conditions: Aβ42 50 μM
Experimental: Carboxyfluorescein dye loaded Large Unilamellar Vesicles (LUVs) preparation LUVs were prepared using a mixture of DMPC, Cholesterol, and GM1 (68:30:2, molar). Lipids were dissolved in chloroform and methanol (2:1, 2 mM) in a glass vessel, and solvents were evaporated using nitrogen gas to make lipid films.3 The lipid films were hydrated with 500 µL of carboxyfluorescein (CF) solution (200 µM) in 50mM HEPES buffer of pH 7.4. Then, the solution was vortexed vigorously for 30 min for emulsification. Then the glass vial was dipped into the liquid nitrogen for instant cooling, and after 5 min the frozen solution was dipped into a water bath at 50-60 °C for freeze-thawing.4This step was repeated five times. The excess dye was removed by ultracentrifugation at 20000 rpm, the supernatant […]
Carboxyfluorescein dye loaded Large Unilamellar Vesicles (LUVs) Leakage Study For leakage study, peptide and lipids were taken in 1:20 molar ratios, and the dye release was monitored by fluorescence emission. Emission was measured at 516 nm, and excitation at 485 nm, 3 nm of bandwidth on a Fluoromax-4, Horiba instrument. The complete dye release from the vesicle was obtained using Triton X-100, and the final fluorescence was measured. The % leakage was calculated as, % 𝐿𝑒𝑎𝑘𝑎𝑔𝑒 = (𝑂𝑏𝑠𝑒𝑟𝑣𝑒𝑑 𝑓𝑙𝑢𝑜𝑟𝑒𝑠𝑐𝑒𝑛𝑐𝑒 –𝑖𝑛𝑖𝑡𝑖𝑎𝑙 𝑓𝑙𝑢𝑜𝑟𝑒𝑠𝑐𝑒𝑛𝑐𝑒) × 100 % … ..(4) (𝑇𝑜𝑡𝑎𝑙 𝑓𝑙𝑢𝑜𝑟𝑒𝑠𝑐𝑒𝑛𝑐𝑒 ‒ 𝑖𝑛𝑖𝑡𝑖𝑎𝑙 𝑓𝑙𝑢𝑜𝑟𝑒𝑠𝑐𝑒𝑛𝑐𝑒) […]

For Aβ42: Aβ42 peptide, the hydrodynamic diameter (Aβ42 [1]; 1 h) was ~8 nm, the hydrodynamic diameter (Aβ42 [1]; 10 h) was ~825 nm and the hydrodynamic diameter (Aβ42 [1]; 20 h) was ~940 nm. For the same substance, the “morphology of Aβ42 aggregates (TEM)” value (Aβ42 [2]) was “exhibited smaller aggregates at 1 h or 5 h”, the “dye leakage from LUVs” value ([3]; absence of SP1, 5 h aged) was ~55% and the “dye leakage from LUVs” value ([3]; absence of SP1, 10 h aged) was ~23%.
